Reference: patent US20260297087A1, “Pyridoimidazolone Compounds, Preparation Thereof and Therapeutic Uses Thereof” (Sanofi, priority 2023, published 2026)

Columns and labels:
ERK5 = molecular target: T1, ERK5 (Homo sapiens, UniProt Q13164); experiment: Inhibition of Cellular ERK5 Activity (cell-based assay, MEF2 luciferase reporter in SN12C cells); conditions: renal cancer cell line SN12C, doxycycline-induced MEKSDD, mean where repeated
T1 construct: MEF2-luciferase reporter
Experimental: (§1) Two assays were performed to assess the ERK5 inhibitory activity of compounds of the Examples, a cell-based assay and a cell-free biochemical assay. Where repeat measurements were taken, the value reported is a mean average.
The renal cancer cell line SN12C was transduced by a lentivirus pGreenFire1 MEF2 EF1 Neo (ref TR030VA-N) from SBI using standard infection protocol. pGreenFire1 MEF2 EF1 Neo allows the expression of luciferase gene under the control of minimal promoter with MEF2 transcriptional response elements. Cells harboring the reporter construct were selected by geneticin treatment. The selected cells were then transposed by a piggyback based plasmid pCM4007 allowing the expression of constitutively activated MEKSDD under control of TREG3 promoter, a doxycycline regulated promoter. Transposed cells were selected by puromycin treatment. Upon doxycycline treatment (1p g/ml) MEKSDD was expressed. MEKSDD activates ERK5 that phosphorylates MEF2C protein. Activated MEF2C protein can bind to its transcriptional response elements. Then the luciferase is expressed. In a 96-well plate (96F nuncleon refl37101 thermofisher), 50,000 cells were inoculated in 142.5 μl of RPMI medium containing 10% fetal calf serum, 1% glutamine, and 1 μg/ml doxycycline. After 24 hours, compounds were added in 7.5 μl culture medium (with 2% DMSO to give a final concentration of 0.1%) in order to obtain the desired concentration (0.3-1000 nM). The luciferase activity was measured using the Kit Bright Glo Luminescent Cell Assay Cat E2610 (Promega) according to the manufacturer's protocol. Luminescence was determined using 0.2 second reading/well using a Tecan SPARK. IC50 values were calculated using XLFIT5 for Microsoft Excel using method 205. The IC50 values represent the concentration of compound which inhibits the measurable luminescence signal by 50% as compared to DMSO-treated control cells.

[1] = molecular target: T2, ERK5 (activated catalytic domain) (Homo sapiens, UniProt Q13164); experiment: Cell-Free Assay of ERK5 Inhibition (Time-Resolved FRET, 4EBP1 peptide phosphorylation); type: biochemical; conditions: ERK5 catalytic domain 4 nM, 1 mM ATP, 1 μM biotinylated 4EBP1 peptide, 30 min at 37° C.; mean where repeated; read-out: Cell-free assay (IC50 in nM)
T2 construct: purchased CarnaBiosciences 04-146
T2 sequence (Q13164 55-347 limits assumed): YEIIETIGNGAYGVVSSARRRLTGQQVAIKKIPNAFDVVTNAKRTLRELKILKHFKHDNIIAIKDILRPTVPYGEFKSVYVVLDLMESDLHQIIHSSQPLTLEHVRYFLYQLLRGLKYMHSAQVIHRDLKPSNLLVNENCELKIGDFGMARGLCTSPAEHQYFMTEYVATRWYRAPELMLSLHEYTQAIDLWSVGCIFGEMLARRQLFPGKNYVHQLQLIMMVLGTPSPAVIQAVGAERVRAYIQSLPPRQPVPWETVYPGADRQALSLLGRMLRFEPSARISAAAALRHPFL
Experimental: as §1
An assay was performed to measure the capacity of each compound to inhibit ERK5 enzymatic activity. Compound potency was evaluated by Time-Resolved Forster Resonance Energy Transfer (FRET system). The activated catalytic domain of protein ERK5 (CarnaBiosciences #04-146) was mixed at 4 nM with varying concentrations of compound and incubated for 30 minutes at room temperature. A mixture of 1 mM ATP and 1 μM biotinylated synthetic peptide was added (Biosyntan GmbH). This synthetic peptide represents amino acids 30-52 of Eukaryotic translation initiation factor 4E-binding protein 1 (see, e.g., the sequence under accession No. NP_004086.1) biotinylated at the N-terminus. After 30 minutes at 37° C., the peptide phosphorylation by ERK5 was measured by addition of FRET reagents consisting of 12.5 μg/ml Streptavidin-XL665, 1 nM Anti-P-4EBP1 antibody and 300 ng/ml Anti-rabbit-K antibody. Following 90 minutes at room temperature fluorescent signals were read on the Pherastar FSX multimod detector from BMG Labtech (Exc° 340 nm, Em1 620 nm, Em2 665 nm). The IC50 values represent the concentration of compound which inhibits the measurable fluorescence signal by 50% as compared to the DMSO only control.

T1 sequence (Q13164 whole entry): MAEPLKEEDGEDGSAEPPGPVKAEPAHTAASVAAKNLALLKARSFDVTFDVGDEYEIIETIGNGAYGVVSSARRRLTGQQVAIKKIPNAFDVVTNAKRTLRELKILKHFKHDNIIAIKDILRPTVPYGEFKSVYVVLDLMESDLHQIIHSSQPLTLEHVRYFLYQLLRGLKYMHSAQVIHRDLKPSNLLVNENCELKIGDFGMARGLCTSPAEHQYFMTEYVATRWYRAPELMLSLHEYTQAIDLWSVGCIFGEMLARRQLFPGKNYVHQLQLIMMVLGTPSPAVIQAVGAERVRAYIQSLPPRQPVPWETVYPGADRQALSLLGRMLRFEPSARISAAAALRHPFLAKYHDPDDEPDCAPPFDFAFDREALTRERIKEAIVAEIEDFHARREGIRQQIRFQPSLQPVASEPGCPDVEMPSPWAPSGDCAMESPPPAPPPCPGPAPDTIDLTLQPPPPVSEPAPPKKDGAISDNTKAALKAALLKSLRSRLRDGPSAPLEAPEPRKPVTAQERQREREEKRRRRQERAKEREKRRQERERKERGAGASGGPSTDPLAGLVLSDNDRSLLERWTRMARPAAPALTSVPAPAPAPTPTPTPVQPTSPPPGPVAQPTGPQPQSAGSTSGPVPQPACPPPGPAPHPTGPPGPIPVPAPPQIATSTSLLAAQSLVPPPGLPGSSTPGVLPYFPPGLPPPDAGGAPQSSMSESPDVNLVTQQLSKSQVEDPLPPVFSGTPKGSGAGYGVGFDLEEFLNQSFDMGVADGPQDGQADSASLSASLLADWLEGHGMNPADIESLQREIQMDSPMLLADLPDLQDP

IC50 (ERK5) [nM]	IC50 [1] [nM]	SMILES
206	150	CN1CCC(Oc2cnc3[nH]c(=O)n(C4CCN(C(=O)c5ccc(OC(F)(F)F)cc5)CC4)c3c2)CC1 [Example 5, 6-[(1-methyl-4-piperidyl)oxy]-1-[1-[4-(trifluoromethoxy)benzoyl]-4-piperidyl]-3H-imidazo[4,5-b]pyridin-2-one]
42	395	Nc1cc(OC(F)(F)F)ccc1C(=O)N1CCC(n2c(=O)[nH]c3ncc(C4CC5(CC(F)C5)C4)cc32)CC1 (stereo not drawn) [Example 21, 1-[1-[2-amino-4-(trifluoromethoxy)benzoyl]-4-piperidyl]-6-(2-fluorospiro[3.3]heptan-6-yl)-3H-imidazo[4,5-b]pyridin-2-one]
358		O=C(c1ccc(OC(F)(F)F)cc1)N1CCC(n2c(=O)[nH]c3ncc(C4CCCC(=NO)CC4)cc32)CC1 (single isomer, unassigned; isomer 1) [Example 64, (rac)-6-[(4E/Z)-4-hydroxyiminocycloheptyl]-1-[1-[4-(trifluoromethoxy)benzoyl]-4-piperidyl]-3H-imidazo[4,5-b]pyridin-2-one, Isomer 1]
74	150	Nc1cc(OC(F)(F)F)ccc1C(=O)N1CCC(n2c(=O)[nH]c3ncc(OC4CCOC4)cc32)CC1 (single isomer, unassigned; isomer 1) [Example 43, 1-[1-[2-amino-4-(trifluoromethoxy)benzoyl]-4-piperidyl]-6-[tetrahydrofuran-3-yl]oxy-3H-imidazo[4,5-b]pyridin-2-one, Isomer 1]
136	354	O=C(c1ccc(OC(F)(F)F)cc1)N1CCC(n2c(=O)[nH]c3ncc(CC4COC4)cc32)CC1 [Example 42, 6-(oxetan-3-ylmethyl)-1-[1-[4-(trifluoromethoxy)benzoyl]-4-piperidyl]-3H-imidazo[4,5-b]pyridin-2-one]
257		O=C(c1ccc(OC(F)(F)F)cc1)N1CCC(n2c(=O)[nH]c3ncc([C@H]4CCC[C@@H](O)CC4)cc32)CC1 (racemic) [Example 62, (rac)-cis-6-(4-hydroxycycloheptyl)-1-[1-[4-(trifluoromethoxy)benzoyl]-4-piperidyl]-3H-imidazo[4,5-b]pyridin-2-one]
68	48	Nc1cc(OC(F)(F)F)ccc1C(=O)N1CCC(n2c(=O)[nH]c3ncc(C4CCOCC4)cc32)CC1 [Example 2, 1-[1-[2-amino-4-(trifluoromethoxy)benzoyl]-4-piperidyl]-6-tetrahydropyran-4-yl-3H-imidazo[4,5-b]pyridin-2-one]
1860	442	O=C(c1ccc(OC(F)(F)F)cc1)N1CCC(n2c(=O)[nH]c3ncc(N4CCO[C@H](CO)C4)cc32)CC1 [Example 12, 6-[(2S)-2-(Hydroxymethyl)morpholin-4-yl]-1-[1-[4-(trifluoromethoxy)benzoyl]-4-piperidyl]-3H-imidazo[4,5-b]pyridin-2-one]
205	695	Nc1cc(OC(F)(F)F)ccc1C(=O)N1CCC(n2c(=O)[nH]c3ncc(C4CCC(F)(F)CC4)cc32)CC1 [Example 35, 1-[1-[2-amino-4-(trifluoromethoxy)benzoyl]-4-piperidyl]-6-(4,4-difluorocyclohexyl)-3H-imidazo[4,5-b]pyridin-2-one]
169	310	Nc1cc(OC(F)(F)F)ccc1C(=O)N1CCC(n2c(=O)[nH]c3ncc(OC4CCOC4)cc32)CC1 (single isomer, unassigned; isomer 2) [Example 44, 1-[1-[2-amino-4-(trifluoromethoxy)benzoyl]-4-piperidyl]-6-[tetrahydrofuran-3-yl]oxy-3H-imidazo[4,5-b]pyridin-2-one, Isomer 2]
278	587	Nc1cc(S(F)(F)(F)(F)F)ccc1C(=O)N1CCC(n2c(=O)[nH]c3ncc(C4CCOCC4)cc32)C1 (racemic) [Example 49, (rac)-1-[1-[2-amino-4-(pentafluoro-λ^6-sulfanyl)benzoyl]pyrrolidin-3-yl]-6-tetrahydropyran-4-yl-3H-imidazo[4,5-b]pyridin-2-one]
217	974	Nc1cc(OC(F)(F)F)ccc1C(=O)N1CCC(n2c(=O)[nH]c3ncc(C45CCCCC4C5)cc32)CC1 (racemic) [Example 34, (rac)-1-[1-[2-amino-4-(trifluoromethoxy)benzoyl]-4-piperidyl]-6-norcaran-1-yl-3H-imidazo[4,5-b]pyridin-2-one]
48	29	Nc1cc(OC(F)(F)F)ccc1C(=O)N1CCC(n2c(=O)[nH]c3ncc(OC4CCOCC4)cc32)CC1 [Example 1, 1-[1-[2-amino-4-(trifluoromethoxy)benzoyl]-4-piperidyl]-6-tetrahydropyran-4-yloxy-3H-imidazo[4,5-b]pyridin-2-one]
413	287	CN1CCC(Oc2cnc3[nH]c(=O)n(C4CCN(C(=O)c5ccc(OC(F)(F)F)cc5)CC4)c3c2)C1 (racemic) [Example 9, (rac)-6-(1-methylpyrrolidin-3-yl)oxy-1-[1-[4-(trifluoromethoxy)benzoyl]-4-piperidyl]-3H-imidazo[4,5-b]pyridin-2-one]
1830	1050	O=C(c1ccc(OC(F)(F)F)cc1)N1CCC(n2c(=O)[nH]c3ncc(N4CCO[C@@H](CO)C4)cc32)CC1 [Example 11, 6-[(2R)-2-(hydroxymethyl)morpholin-4-yl]-1-[1-[4-(trifluoromethoxy)benzoyl]-4-piperidyl]-3H-imidazo[4,5-b]pyridin-2-one]
75	117	Nc1cc(OC(F)(F)F)ccc1C(=O)N1CCC(n2c(=O)[nH]c3ncc(CC4CCOCC4)cc32)CC1 [Example 39, 1-[1-[2-amino-4-(trifluoromethoxy)benzoyl]-4-piperidyl]-6-(tetrahydropyran-4-ylmethyl)-3H-imidazo[4,5-b]pyridin-2-one]
254		O=C1CCCC(c2cnc3[nH]c(=O)n(C4CCN(C(=O)c5ccc(OC(F)(F)F)cc5)CC4)c3c2)CC1 (racemic) [Example 63, (rac)-6-(4-oxocycloheptyl)-1-[1-[4-(trifluoromethoxy)benzoyl]-4-piperidyl]-3H-imidazo[4,5-b]pyridine-2-one]
358		O=C(c1ccc(OC(F)(F)F)cc1)N1CCC(n2c(=O)[nH]c3ncc([C@H]4CCCC[C@@H](O)C4)cc32)CC1 (racemic) [Example 67, (rac)-cis-6-(3-hydroxycycloheptyl)-1-[1-[4-(trifluoromethoxy)benzoyl]-4-piperidyl]-3H-imidazo[4,5-b]pyridin-2-one]
547		O=C(c1ccc(OC(F)(F)F)cc1)N1CCC(n2c(=O)[nH]c3ncc([C@@H]4CCCC[C@@H](O)C4)cc32)CC1 (racemic) [Example 66, (rac)-trans-6-(3-hydroxycycloheptyl)-1-[1-[4-(trifluoromethoxy)benzoyl]-4-piperidyl]-3H-imidazo[4,5-b]pyridin-2-one]
	533	Nc1cc(OC(F)(F)F)ccc1C(=O)N1CCC(n2c(=O)[nH]c3ncc(C45CCNCC4C5)cc32)CC1 (racemic) [Example 28, (rac)-1-[1-[2-amino-4-(trifluoromethoxy)benzoyl]-4-piperidyl]-6-(3-azabicyclo[4.1.0]heptan-6-yl)-3H-imidazo[4,5-b]pyridin-2-one, 2,2,2-trifluoroacetic acid]
202		O=C(c1ccc(OC(F)(F)F)cc1)N1CCC(n2c(=O)[nH]c3ncc([C@@H]4CCC[C@@H](O)CC4)cc32)CC1 (racemic) [Example 61, (rac)-trans-6-(4-hydroxycycloheptyl)-1-[1-[4-(trifluoromethoxy)benzoyl]-4-piperidyl]-3H-imidazo[4,5-b]pyridin-2-one]
575		O=C(c1ccc(OC(F)(F)F)cc1)N1CCC(n2c(=O)[nH]c3ncc(C4CCCC(=NO)CC4)cc32)CC1 (single isomer, unassigned; isomer 2) [Example 65, (rac)-6-[(4E/Z)-4-hydroxyiminocycloheptyl]-1-[1-[4-(trifluoromethoxy)benzoyl]-4-piperidyl]-3H-imidazo[4,5-b]pyridin-2-one, Isomer 2]
